Data set [1] deals with Rhodesain (Trypanosoma brucei rhodesiense) (UniProt Q95PM0). The experiment in a line: Inhibition of Trypanosoma brucei rhodesiense rhodesain assessed as second-order rate constant using Cbz-Phe-Arg-AMC as substrate measured for 30 mins by fluorescence method.
The target of data set [2] is Cruzipain (Trypanosoma cruzi) (UniProt P25779). The experiment in a line: Inhibition of Trypanosoma cruzi cruzain at 20 uM relative to control.
For data set [3], the target named is Rhodesain (Trypanosoma brucei rhodesiense) (UniProt Q95PM0). In words: Inhibition of Trypanosoma brucei rhodesiense rhodesain at 20 uM using Cbz-Phe-Arg-AMC as substrate measured for 30 mins by fluorescence method relative to control.
The target in data set [4] is T1, Cathepsin B (Homo sapiens, UniProt P07858). In words: Inhibition of human cathepsin B at 20 uM using Cbz-Phe-Arg-AMC as substrate relative to control.
Data set [5] concerns the target T1, Cathepsin B. The experiment in a line: Inhibition of human cathepsin B using Cbz-Phe-Arg-AMC as substrate.
The next data set addresses Rhodesain (Trypanosoma brucei rhodesiense, UniProt Q95PM0). In words: Inhibition of Trypanosoma brucei rhodesiense rhodesain using Cbz-Phe-Arg-AMC as substrate measured for 30 mins by fluorescence method.
Data set [6] concerns the target Cruzipain (Trypanosoma cruzi) (UniProt P25779). The experiment in a line: Inhibition of Trypanosoma cruzi cruzain assessed as second-order rate constant.
The target of data set [7] is T1, Cathepsin B. The experiment in a line: Inhibition of human cathepsin B assessed as second order rate constant using Cbz-Phe-Arg-AMC as substrate.
The target of data set [8] is Cruzipain (Trypanosoma cruzi) (UniProt P25779). In words: Irreversible inhibition of Trypanosoma cruzi cruzain pretreated for 30 mins followed by substrate addition and measured for 30 mins by dialysis method.
For data set [9], the target named is Rhodesain (Trypanosoma brucei rhodesiense) (UniProt Q95PM0). In words: Irreversible inhibition of Trypanosoma brucei rhodesiense rhodesain using Cbz-Phe-Arg-AMC as substrate pretreated for 30 mins followed by substrate addition and measured for 30 mins by dialysis method.
Data set [10] addresses T2, Falcipain 2 (Plasmodium falciparum) (UniProt Q9N6S8).
T2 sequence (whole entry): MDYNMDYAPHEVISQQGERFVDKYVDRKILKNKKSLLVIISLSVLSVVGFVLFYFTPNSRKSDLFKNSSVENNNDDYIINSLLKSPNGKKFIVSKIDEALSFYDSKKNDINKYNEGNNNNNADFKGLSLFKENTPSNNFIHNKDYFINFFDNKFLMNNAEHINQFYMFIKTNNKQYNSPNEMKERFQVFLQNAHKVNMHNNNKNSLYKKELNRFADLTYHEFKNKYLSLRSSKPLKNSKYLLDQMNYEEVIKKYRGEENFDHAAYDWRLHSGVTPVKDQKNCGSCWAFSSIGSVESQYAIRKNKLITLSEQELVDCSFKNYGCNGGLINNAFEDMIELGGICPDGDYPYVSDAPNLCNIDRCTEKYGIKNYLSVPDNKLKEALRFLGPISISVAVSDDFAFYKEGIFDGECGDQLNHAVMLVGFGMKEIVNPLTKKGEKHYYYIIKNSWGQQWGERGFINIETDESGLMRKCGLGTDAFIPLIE
In words: Irreversible inhibition of Plasmodium falciparum falcipain-2 using Cbz-Phe-Arg-AMC as substrate pretreated for 30 mins followed by substrate addition and measured for 30 mins by dialysis method.

Data set [11] concerns the target T3, Procathepsin L (Homo sapiens, UniProt P07711). The experiment in a line: Inhibition of human cathepsin L using Cbz-Phe-Arg-AMC as substrate.
Target sequence in this assay (P07711 whole entry): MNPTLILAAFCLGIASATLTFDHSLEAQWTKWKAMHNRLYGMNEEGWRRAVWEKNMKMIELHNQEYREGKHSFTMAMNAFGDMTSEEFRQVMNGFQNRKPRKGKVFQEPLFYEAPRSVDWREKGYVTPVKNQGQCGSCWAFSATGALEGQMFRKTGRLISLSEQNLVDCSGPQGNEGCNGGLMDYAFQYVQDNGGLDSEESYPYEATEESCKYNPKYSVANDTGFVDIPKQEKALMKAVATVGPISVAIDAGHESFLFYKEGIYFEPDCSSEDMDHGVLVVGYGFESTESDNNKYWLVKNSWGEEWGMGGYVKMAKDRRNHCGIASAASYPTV
Another data set concerns Plasmodium falciparum. The experiment in a line: Antimalarial activity against erythrocytic stage of synchronized Plasmodium falciparum Dd2 after 48 hrs by Picogreen dye based fluorescence assay. Format: functional, organism-based. The following applies: Dd2, 48 h.
Data set [12] has as its target T3, Procathepsin L. In words: Inhibition of human cathepsin L assessed as second order rate constant using Cbz-Phe-Arg-AMC as substrate.
Target sequence in this assay (P07711 114-333 limits assumed): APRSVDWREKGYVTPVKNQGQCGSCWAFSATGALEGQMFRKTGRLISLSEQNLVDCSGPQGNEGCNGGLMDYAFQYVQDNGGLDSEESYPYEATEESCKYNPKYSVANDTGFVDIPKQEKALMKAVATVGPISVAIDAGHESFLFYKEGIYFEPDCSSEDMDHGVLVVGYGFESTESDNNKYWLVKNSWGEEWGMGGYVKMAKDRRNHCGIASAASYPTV
Another data set addresses Cruzipain (Trypanosoma cruzi, UniProt P25779). The experiment in a line: Inhibition of Trypanosoma cruzi cruzain.
Data set [13] in a line: Cytotoxicity against human HepG2 cells assessed as cell viability at 1 uM measured after 24 hrs by spectrophotometric method relative to control. Format: cell-based. Particulars: read-out: Activity.
Data set [14] addresses T3, Procathepsin L. In words: Inhibition of human cathepsin L at 20 uM using Cbz-Phe-Arg-AMC as substrate relative to control.
Target sequence in this assay (P07711 114-333 limits assumed): as above
For the next data set, the system named is Trypanosoma cruzi. In words: Antitrypanosomal activity against Trypanosoma cruzi Tulahuen strain C2C4 amastigote forms harboring LacZ infected in rat L6 cells after 96 hrs by CPRG/Nonidet reagent based photometric method. The following applies: Tulahuen strain C2C4, L6, 96 h. The format is functional, organism-based.
The next data set concerns Leishmania donovani. The experiment in a line: Antileishmanial activity against Leishmania donovani MHOM/ET/67/L82 axenic amastigotes after 70 hrs by alamar blue staining based fluorescence assay. Format: functional, organism-based. Particulars: MHOM/ET/67/L82, 70 h.
A further data set concerns the target T4, Falcipain 2 (Plasmodium falciparum, UniProt Q9N6S8).
T4 sequence (Q9N6S8 whole entry): T2 sequence (whole entry)
The experiment in a line: Inhibition of Plasmodium falciparum falcipain-2 using Cbz-Phe-Arg-AMC as substrate measured for 15 mins by spectrofluorimetric method.

In data set [15] the target is T2, Falcipain 2 (Plasmodium falciparum). The experiment in a line: Inhibition of Plasmodium falciparum falcipain-2 assessed as second-order rate constant using Cbz-Phe-Arg-AMC as substrate measured for 15 mins by spectrofluorimetric method.
Data set [16] concerns Trypanosoma brucei rhodesiense. In words: Antiprotozoal activity against patient derived Trypanosoma brucei rhodesiense STIB 900 bloodstream form after 70 hrs by Alamar Blue assay. Format: functional, organism-based. Particulars: STIB 900, 70 h. (In general: Alamar Blue is a resazurin reagent that responds to reducing activity.)
The target of data set [17] is T2, Falcipain 2 (Plasmodium falciparum). The experiment in a line: Inhibition of Plasmodium falciparum falcipain-2 at 20 uM using Cbz-Phe-Arg-AMC as substrate measured for 15 mins by spectrofluorimetric method relative to control.
Data set [18] addresses Rhodesain (Trypanosoma brucei rhodesiense) (UniProt Q95PM0). The experiment in a line: Reversible inhibition of Trypanosoma brucei rhodesiense rhodesain using Cbz-Phe-Arg-AMC as substrate pretreated for 30 mins followed by substrate addition and measured for 30 mins by dialysis method.
Data set [19] deals with T2, Falcipain 2 (Plasmodium falciparum). In words: Reversible inhibition of Plasmodium falciparum falcipain-2 using Cbz-Phe-Arg-AMC as substrate pretreated for 30 mins followed by substrate addition and measured for 30 mins by dialysis method.
Data set [20] addresses Cruzipain (Trypanosoma cruzi) (UniProt P25779). In words: Reversible inhibition of Trypanosoma cruzi cruzain pretreated for 30 mins followed by substrate addition and measured for 30 mins by dialysis method.

The source made the active and inactive calls. The calls are words filed in the database; no cut-off is given here. A value given as a limit tells only on which side of the number the result lay.

This is an account of results in ChEMBL document CHEMBL4229471, “Antiprotozoal and cysteine proteases inhibitory activity of dipeptidyl enoates” (Bioorg Med Chem, 2018).

Cruzipain, sequence (P25779 whole entry): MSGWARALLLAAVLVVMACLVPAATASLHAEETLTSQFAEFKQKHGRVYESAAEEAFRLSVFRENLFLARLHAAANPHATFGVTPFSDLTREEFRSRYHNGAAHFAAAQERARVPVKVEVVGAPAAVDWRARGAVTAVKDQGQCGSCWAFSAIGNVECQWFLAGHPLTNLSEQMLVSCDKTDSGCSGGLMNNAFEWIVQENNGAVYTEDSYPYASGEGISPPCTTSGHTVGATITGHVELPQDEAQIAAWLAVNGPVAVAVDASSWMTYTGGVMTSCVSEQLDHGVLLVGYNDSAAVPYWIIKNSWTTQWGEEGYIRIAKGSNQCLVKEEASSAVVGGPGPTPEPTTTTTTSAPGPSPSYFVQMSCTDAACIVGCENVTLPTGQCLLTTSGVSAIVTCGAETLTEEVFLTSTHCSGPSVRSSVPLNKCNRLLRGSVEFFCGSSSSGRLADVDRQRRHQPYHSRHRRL
Rhodesain (Trypanosoma brucei rhodesiense), sequence (Q95PM0 1-450): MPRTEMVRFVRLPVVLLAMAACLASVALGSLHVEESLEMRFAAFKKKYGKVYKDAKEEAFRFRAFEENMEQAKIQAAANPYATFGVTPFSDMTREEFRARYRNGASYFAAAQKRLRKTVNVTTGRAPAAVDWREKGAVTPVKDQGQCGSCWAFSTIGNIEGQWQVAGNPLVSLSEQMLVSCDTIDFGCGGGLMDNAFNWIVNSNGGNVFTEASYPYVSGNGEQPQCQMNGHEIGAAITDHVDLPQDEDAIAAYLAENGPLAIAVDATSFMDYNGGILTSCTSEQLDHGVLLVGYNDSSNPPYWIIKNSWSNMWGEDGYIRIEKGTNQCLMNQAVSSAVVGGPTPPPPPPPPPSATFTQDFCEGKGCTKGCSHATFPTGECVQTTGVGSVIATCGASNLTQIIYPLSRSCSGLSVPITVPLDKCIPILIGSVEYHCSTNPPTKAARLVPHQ
Rhodesain, sequence (Q95PM0 whole entry): as the sequence (Q95PM0 1-450) above
Cruzipain (Trypanosoma cruzi), sequence (P25779 123-467 limits assumed): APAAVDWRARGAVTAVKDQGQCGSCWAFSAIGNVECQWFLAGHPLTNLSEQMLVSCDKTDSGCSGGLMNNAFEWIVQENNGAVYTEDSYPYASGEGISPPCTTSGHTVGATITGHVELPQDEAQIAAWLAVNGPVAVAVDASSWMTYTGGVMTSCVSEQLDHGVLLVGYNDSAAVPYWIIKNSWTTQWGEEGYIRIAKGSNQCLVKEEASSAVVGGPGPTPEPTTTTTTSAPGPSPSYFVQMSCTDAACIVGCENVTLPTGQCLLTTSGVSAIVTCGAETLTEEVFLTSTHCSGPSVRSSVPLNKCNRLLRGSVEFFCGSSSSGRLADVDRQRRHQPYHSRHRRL

As usually defined, the inhibition is the percentage by which the read-out fell short of the control. The IC50 is the point on the concentration scale where inhibition reaches its midpoint. Higher therefore signals weaker potency in that assay. As for `CCOC(=O)/C=C/C(=O)[C@H](CCc1ccccc1)NC(=O)[C@H](Cc1ccccc1)NC(=O)N1CCOCC1`, the K in data set [1] amounted to 142000 M⁻¹ s⁻¹; in data set [6] it was 23400 M⁻¹ s⁻¹; at Cathepsin B [7], 97000 M⁻¹ s⁻¹; at Procathepsin L [12] it was 28500 M⁻¹ s⁻¹. In addition, the inhibition (in data set [2]; in data set [3]; against Cathepsin B [4]; at Procathepsin L [14]) was 100% throughout. The IC50 on Cathepsin B [5] stood at 70 nM; against Rhodesain it was 150 nM; on Procathepsin L [11], 180 nM; in the data set with Plasmodium falciparum, 6810 nM; against Cruzipain, 300 nM. Also, the inhibition entry in data set [8], in data set [9] and in data set [10] was “Active” in each case. In addition, the viability at 24 h, 1 µM in data set [13] is 100%.

In turn, `O=C(Cn1ccnc1[N+](=O)[O-])NCc1ccccc1` [BENZNIDAZOLE] gave an IC50 in the data set with Trypanosoma cruzi of 0.5 µg/mL.

For the compound `CCOC(=O)/C=C/C(=O)[C@H](CCc1ccccc1)NC(=O)[C@H](CC(C)C)NC(=O)OCc1ccccc1`, the K came out at 116000 M⁻¹ s⁻¹ in data set [1]; 6000 M⁻¹ s⁻¹ in data set [15]; 60800 M⁻¹ s⁻¹ in [6]; 42400 M⁻¹ s⁻¹ at Cathepsin B [7]; 29900 M⁻¹ s⁻¹ on Procathepsin L [12]. Besides, the IC50 in the data set with Leishmania donovani came to 90 nM; against Falcipain 2 it was 580 nM; with Trypanosoma cruzi, 7140 nM; in [16] it was 2320 nM; against Procathepsin L [11] it was 260 nM; in the data set with Plasmodium falciparum it was 1610 nM. At Cruzipain, this compound showed an IC50 of 80 nM. In addition, the inhibition worked out at 100% in [2]; 98% in data set [3]; 100% at Cathepsin B [4]; 98% in [17]; 100% on Procathepsin L [14]. Further, the viability at 24 h, 1 µM in [13] came to 100%.

Broadly, the Ki is the dissociation constant of the complex between target and ligand, obtained from inhibition or displacement. Higher therefore signals a looser hold on the target. In the case of `CCOC(=O)/C=C/C=C/C(=O)[C@H](CCc1ccccc1)NC(=O)[C@H](Cc1ccccc1)NC(=O)N1CCOCC1`, the inhibition in data set [3] is 98%; at Cathepsin B [4] it was 90%; against Procathepsin L [14], 99%. For the same compound, the inhibition result in data set [18], in data set [19], in [8], in [9], in [10] and in data set [20] was “Active” each time. For the same compound, the IC50 against Cathepsin B [5] is 2250 nM; against Rhodesain it was 560 nM; at Procathepsin L [11] it was 1490 nM; at Cruzipain, greater than 2000 nM. Besides, the Ki came to 1400 nM on Cathepsin B [5] and 780000 nM on Procathepsin L [11]. The K in [6] was 0.56 M⁻¹ s⁻¹.

With `CCOC(=O)/C=C/C(=O)[C@@H](CCc1ccccc1)NC(=O)[C@H](Cc1ccccc1)NC(=O)N1CCOCC1`, the K was found to be 62400 M⁻¹ s⁻¹ in data set [1], 22000 M⁻¹ s⁻¹ in [6] and 108000 M⁻¹ s⁻¹ at Cathepsin B [7]. For the same compound, the inhibition in data set [2] came to 99%; in [3] it was 99%; against Cathepsin B [4], 99%; at Procathepsin L [14], 100%. In addition, the IC50 at Cathepsin B [5] is 80 nM; at Rhodesain it was 150 nM; on Procathepsin L [11], greater than 2000 nM; on Cruzipain, 330 nM. Also, the inhibition result in [8], in [9] and in data set [10] was “Active” throughout.

As for `CCOC(=O)/C=C/C(=O)[C@H](CCc1ccccc1)NC(=O)[C@H](Cc1ccccc1)NC(=O)OCc1ccccc1`, the K in data set [1] worked out at 1.27e+06 M⁻¹ s⁻¹; in data set [15] it was 17100 M⁻¹ s⁻¹; at Cathepsin B [7] it was 45500 M⁻¹ s⁻¹; on Procathepsin L [12], 45300 M⁻¹ s⁻¹. Moreover, the IC50 in the data set on Leishmania donovani came to 12600 nM; at Falcipain 2, 60 nM; on Rhodesain, 30 nM; in the data set with Trypanosoma cruzi, 20100 nM; in data set [16], 930 nM; with Plasmodium falciparum, 16100 nM. For the same compound, the inhibition in [2] is 99%; in data set [3], 100%; against Cathepsin B [4], 100%; in [17], 100%; against Procathepsin L [14] it was 100%. Moreover, the viability at 24 h, 1 µM in data set [13] was 100%.
